According to patent US20110190247A1, “CYCLOPROPYLCHROMENE DERIVATIVES AS MODULATORS OF THE ALPHA-2C RECEPTOR” (Schering Corporation, priority 2008, published 2011):

What was measured:
α2C receptor [1] = target: T1, α2C receptor (Homo sapiens, UniProt P18825); assay: GTPγS assay, efficacy agonist activity (Emax) at α2C; assay type: biochemical; conditions: for evaluated as agonist of the α2C receptor subtype: by definition: efficacy at α2C 30% Emax (GTPγS assay), functionally selective if efficacy at α2A ≦35% Emax; for evaluated as antagonist of the α2C receptor subtype: by definition: efficacy at α2C <30% Emax (GTPγS assay) and Ki <500 nM
T1 sequence (P18825 1-462): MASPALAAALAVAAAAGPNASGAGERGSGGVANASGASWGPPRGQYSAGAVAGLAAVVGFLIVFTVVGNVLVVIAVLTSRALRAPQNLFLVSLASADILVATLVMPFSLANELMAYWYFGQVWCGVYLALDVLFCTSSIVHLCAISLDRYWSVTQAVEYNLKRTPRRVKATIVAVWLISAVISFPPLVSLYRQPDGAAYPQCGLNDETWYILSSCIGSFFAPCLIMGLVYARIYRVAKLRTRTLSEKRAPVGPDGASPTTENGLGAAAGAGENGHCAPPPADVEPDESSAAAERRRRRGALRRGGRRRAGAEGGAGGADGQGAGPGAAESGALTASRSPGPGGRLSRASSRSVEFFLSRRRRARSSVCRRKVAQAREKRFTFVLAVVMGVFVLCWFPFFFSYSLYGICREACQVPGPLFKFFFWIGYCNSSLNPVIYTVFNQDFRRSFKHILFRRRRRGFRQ
Procedure: Efficacy agonist activity values (Emax, GTPγS assay) for α2A and α2C were determined by following the general procedure detailed by Umland et. al (“Receptor reserve analysis of the human α2c-adrenoceptor using [^35S]GTPγS and cAMP functional assays” European Journal of Pharmacology 2001, 411, 211-221). For the purposes of the present invention, a compound is defined to be a specific or at least functionally selective agonist of the α2C receptor subtype if the compound's efficacy at the α2C receptor is […] (GTPγS assay) and its efficacy at the α2A receptor is ≦35% Emax (GTPγS assay). Additionally, for the purposes of this invention, a compound is defined to be an antagonist of the α2C receptor subtype if the compound's efficacy at the α2C receptor is <30% Emax (GTPγS assay) and the Ki at the α2C receptor subtype was <500 nM, preferentially <200 nM, and most preferentially <20 nM.

α2C receptor [2] = target: T1, α2C receptor; assay: binding inhibition at the α2C receptor (Ki); conditions: compounds classed as α2C antagonists; read-out: Ki at the α2C receptor subtype

Structure (SMILES) | evaluated as agonist of the α2C receptor subtype (α2C receptor [1]) | evaluated as antagonist of the α2C receptor subtype (α2C receptor [1]) | Ki (α2C receptor [2]) [nM]
COCC(=O)N(C)c1ccc2c(c1)[C@@H]1[C@H](CO2)[C@H]1c1c[nH]cn1 (racemic) [(±)-5] | active or functionally selective agonists |  | 
CNC(=O)N(C)c1ccc2c(c1)[C@@H]1[C@H](CO2)[C@H]1c1c[nH]cn1 (racemic) [(±)-101] | active or functionally selective agonists |  | 
COC(=O)N(C)c1ccc2c(c1)[C@@H]1[C@H](CO2)[C@H]1c1c[nH]cn1 (racemic) [(±)-102] | active or functionally selective agonists |  | 
Cc1n[nH]c(C)c1-c1ccc2c(c1)[C@@H]1[C@H](CO2)[C@H]1c1c[nH]cn1 (racemic) [(±)-2C] | active or functionally selective agonists |  | 
CCN(C(=O)NC)c1ccc2c(c1)[C@@H]1[C@H](CO2)[C@H]1c1c[nH]cn1 (racemic) [(±)-3] | active or functionally selective agonists |  | 
Cc1nn(C)c(C)c1-c1ccc2c(c1)[C@@H]1[C@H](CO2)[C@H]1c1c[nH]cn1 (racemic) [(±)-2f] |  | antagonist | < 200
CNc1ncncc1-c1ccc2c(c1)[C@@H]1[C@H](CO2)[C@H]1c1c[nH]cn1 (racemic) [(±)-7] |  | antagonist | < 200
c1nc([C@@H]2[C@H]3COc4ccc(-c5cn[nH]c5)cc4[C@H]32)c[nH]1 (racemic) [(±)-2e] |  | antagonist | < 200
Cc1noc(C)c1-c1ccc2c(c1)[C@@H]1[C@H](CO2)[C@H]1c1c[nH]cn1 (racemic) [(±)-2d] |  | antagonist | < 200
c1ncc(-c2ccc3c(c2)[C@@H]2[C@H](CO3)[C@H]2c2c[nH]cn2)cn1 (racemic) [(±)-2] |  | antagonist | < 200
CCN(C(=O)OC)c1ccc2c(c1)[C@@H]1[C@H](CO2)[C@H]1c1c[nH]cn1 (racemic) [(±)-4] | active or functionally selective agonists |  | 
Cn1nccc1-c1ccc2c(c1)[C@@H]1[C@H](CO2)[C@H]1c1c[nH]cn1 (racemic) [(±)-2A] | active or functionally selective agonists |  | 
CNc1ncnc(C)c1-c1ccc2c(c1)[C@@H]1[C@H](CO2)[C@H]1c1c[nH]cn1 (racemic) [(±)-8] | active or functionally selective agonists |  | 
CCN(C(=O)COC)c1ccc2c(c1)[C@@H]1[C@H](CO2)[C@H]1c1c[nH]cn1 (racemic) [(±)-100] |  | antagonist | < 200
